Test results reported in patent US20250312497A1, “METHOD OF TREATING PROSTATE CANCER” (Novartis AG, priority 2022, published 2025).
Values joined by “and” are separate entries in the source; they are usually repeats but may differ in a detail not shown here. Equal values may be shown once.

Tested on: PSMA-positive mCRPC participants
Experiment: PSMAfore phase III: adverse events, serious adverse events, safety topics and deaths (safety set)
Format: in vivo, human
Conditions: for AEs leading to discontinuation, Treatment-related / Grade≥3 AEs, Treatment-related / Serious AEs, Treatment-related: ARDT prior to crossover
[1] = DCO 2 Oct 2022, most common AEs (>10% in either arm)
[2] = DCO 2 Oct 2022, safety set, All Grades
[3] = DCO 2 Oct 2022, safety set, Grade >=3
[4] = DCO 2 Oct 2022, safety set, preferred term
[5] = DCO 2 Oct 2022, safety set, system organ class
[6] = DCO 21 Jun 2023, most common AEs by PT (>10% in either arm)
[7] = DCO 21 Jun 2023, safety set, All Grades
[8] = DCO 21 Jun 2023, safety set, Grade >=3
[9] = Safety set, [[…]Lu]Lu-PSMA-617 N = 227, ARDT N = 232
[10] = Safety set, [[…]Lu]Lu-PSMA-617 N = 227, ARDT N = 232 (prior to crossover), CTCAE V5.0

O=C([O-])CN1CCN(CC(=O)[O-])CCN(CC(=O)NCC2CCC(C(=O)N[C@@H](Cc3ccc4ccccc4c3)C(=O)NCCCC[C@H](NC(=O)N[C@@H](CCC(=O)O)C(=O)O)C(=O)O)CC2)CCN(CC(=O)[O-])CC1.[177Lu+3] (some centres unmarked) [[177Lu]Lu-PSMA-617, lutetium (177Lu) vipivotide tetraxetan]
Fatal serious AEs (DCO 2 Oct 2022): Fatal serious AEs: 1.8% in [177Lu]Lu-PSMA-
death during the study due to study indication (DCO 2 Oct 2022): 4.4%
most frequent serious adverse event: urinary tract infection (DCO 2 Oct 2022): 1.8%
on-treatment deaths due to Study indication (DCO 2 Oct 2022): 0%
subjects who received at least one dose and died during the study (DCO 2 Oct 2022): 18 (8%) n (%)
AEs leading to discontinuation, Treatment-related (DCO 2 Oct 2022): 1.8%
Grade≥3 AEs, Treatment-related (DCO 2 Oct 2022): 6.6%
Serious AEs, Treatment-related (DCO 2 Oct 2022): 2.2%
Anaemia [1]: 16.8%
Arthralgia [1]: 11.5%
Asthenia [1]: 23.9%
Back pain [1]: 7.1%
COVID-19 [1]: 11.1%
Constipation [1]: 15.5%
Decreased appetite [1]: 12.8%
Diarrhoea [1]: 12.4%
Dry mouth [1]: 44.7%
Fatigue [1]: 18.1%
Nausea [1]: 25.2%
On-treatment deaths: Number of subjects who died (DCO 2 Oct 2022, safety set): 4 (1.8%) n (%) and 4 (1.8) n (%)
On-treatment deaths: Other (DCO 2 Oct 2022, safety set): 4 (1.8) n (%)
On-treatment deaths: Study indication (DCO 2 Oct 2022, safety set): 0 n (%)
AE preferred term: Anaemia [2]: 38 (16.8) n (%)
AE preferred term: Arthralgia [2]: 26 (11.5) n (%)
AE preferred term: Asthenia [2]: 54 (23.9) n (%)
AE preferred term: Back pain [2]: 16 (7.1) n (%)
AE preferred term: COVID-19 [2]: 25 (11.1) n (%)
AE preferred term: Constipation [2]: 35 (15.5) n (%)
AE preferred term: Decreased appetite [2]: 29 (12.8) n (%)
AE preferred term: Diarrhoea [2]: 28 (12.4) n (%)
AE preferred term: Dry mouth [2]: 101 (44.7) n (%)
AE preferred term: Fatigue [2]: 41 (18.1) n (%)
AE preferred term: Nausea [2]: 57 (25.2) n (%)
Adverse events (subjects with at least one event) [2]: 202 (89.4) n (%)
Adverse events leading to discontinuation [2]: 9 (4.0) n (%)
Adverse events leading to discontinuation, Treatment-related [2]: 4 (1.8) n (%)
Adverse events leading to dose adjustment [2]: 5 (2.2) n (%)
Adverse events leading to dose interruption [2]: 16 (7.1) n (%)
Adverse events requiring additional therapy [2]: 121 (53.5) n (%)
Adverse events, Treatment-related [2]: 170 (75.2) n (%)
Fatal serious adverse events [2]: 4 (1.8) n (%)
Fatal serious adverse events, Treatment-related [2]: 0 n (%)
Safety topic: Dry eye [2]: 6 (2.7) n (%)
Safety topic: Dry mouth [2]: 101 (44.7) n (%)
Safety topic: Fractures [2]: 3 (1.3) n (%)
Safety topic: Hepatotoxicity [2]: 20 (8.8) n (%)
Safety topic: Intracranial haemorrhage [2]: 2 (0.9) n (%)
Safety topic: Myelosuppression [2]: 56 (24.8) n (%)
Safety topic: QT prolongation [2]: 2 (0.9) n (%)
Safety topic: Radiotoxicity including inadvertent exposure [2]: 0 n (%)
Safety topic: Renal toxicity [2]: 11 (4.9) n (%)
Safety topic: Second primary malignancies [2]: 3 (1.3) n (%)
Serious AE preferred term: Anaemia [2]: 2 (0.9) n (%)
Serious AE preferred term: Haematuria [2]: 0 n (%)
Serious AE preferred term: Pain [2]: 1 (0.4) n (%)
Serious AE preferred term: Spinal cord compression [2]: 2 (0.9) n (%)
Serious AE preferred term: Urinary retention [2]: 1 (0.4) n (%)
Serious AE preferred term: Urinary tract infection [2]: 4 (1.8) n (%)
Serious adverse events (subjects with at least one event) [2]: 35 (15.5) n (%)
Serious adverse events, Treatment-related [2]: 5 (2.2) n (%)
AE preferred term: Anaemia [3]: 10 (4.4) n (%)
AE preferred term: Arthralgia [3]: 0 n (%)
AE preferred term: Asthenia [3]: 1 (0.4) n (%)
AE preferred term: Back pain [3]: 2 (0.9) n (%)
AE preferred term: COVID-19 [3]: 1 (0.4) n (%)
AE preferred term: Constipation [3]: 1 (0.4) n (%)
AE preferred term: Decreased appetite [3]: 0 n (%)
AE preferred term: Diarrhoea [3]: 0 n (%)
AE preferred term: Dry mouth [3]: 1 (0.4) n (%)
AE preferred term: Fatigue [3]: 0 n (%)
AE preferred term: Nausea [3]: 0 n (%)
Adverse events (subjects with at least one event) [3]: 53 (23.5) n (%)
Adverse events leading to discontinuation [3]: 6 (2.7) n (%)
Adverse events leading to discontinuation, Treatment-related [3]: 3 (1.3) n (%)
Adverse events leading to dose adjustment [3]: 1 (0.4) n (%)
Adverse events leading to dose interruption [3]: 9 (4.0) n (%)
Adverse events requiring additional therapy [3]: 34 (15.0) n (%)
Adverse events, Treatment-related [3]: 15 (6.6) n (%)
Fatal serious adverse events [3]: 4 (1.8) n (%)
Fatal serious adverse events, Treatment-related [3]: 0 n (%)
Safety topic: Dry eye [3]: 0 n (%)
Safety topic: Dry mouth [3]: 1 (0.4) n (%)
Safety topic: Fractures [3]: 1 (0.4) n (%)
Safety topic: Hepatotoxicity [3]: 8 (3.5) n (%)
Safety topic: Intracranial haemorrhage [3]: 1 (0.4) n (%)
Safety topic: Myelosuppression [3]: 19 (8.4) n (%)
Safety topic: QT prolongation [3]: 1 (0.4) n (%)
Safety topic: Radiotoxicity including inadvertent exposure [3]: 0 n (%)
Safety topic: Renal toxicity [3]: 2 (0.9) n (%)
Safety topic: Second primary malignancies [3]: 1 (0.4) n (%)
Serious AE preferred term: Anaemia [3]: 1 (0.4) n (%)
Serious AE preferred term: Haematuria [3]: 0 n (%)
Serious AE preferred term: Pain [3]: 1 (0.4) n (%)
Serious AE preferred term: Spinal cord compression [3]: 2 (0.9) n (%)
Serious AE preferred term: Urinary retention [3]: 1 (0.4) n (%)
Serious AE preferred term: Urinary tract infection [3]: 3 (1.3) n (%)
Serious adverse events (subjects with at least one event) [3]: 30 (13.3) n (%)
Serious adverse events, Treatment-related [3]: 4 (1.8) n (%)
On-treatment deaths: COVID-19 pneumonia [4]: 1 (0.4) n (%)
On-treatment deaths: Cardiac arrest [4]: 1 (0.4) n (%)
On-treatment deaths: Coma [4]: 0 n (%)
On-treatment deaths: Dyspnoea [4]: 0 n (%)
On-treatment deaths: Intestinal ischaemia [4]: 1 (0.4) n (%)
On-treatment deaths: Sepsis [4]: 1 (0.4) n (%)
On-treatment deaths: Cardiac disorders [5]: 1 (0.4) n (%)
On-treatment deaths: Gastrointestinal disorders [5]: 1 (0.4) n (%)
On-treatment deaths: Infections and infestations [5]: 2 (0.9) n (%)
On-treatment deaths: Nervous system disorders [5]: 0 n (%)
On-treatment deaths: Respiratory, thoracic and mediastinal disorders [5]: 0 n (%)
AEs leading to discontinuation, Treatment-related (DCO 21 Jun 2023): 3.1%
Grade≥3 AEs, Treatment-related (DCO 21 Jun 2023): 11.0%
Serious AEs, Treatment-related (DCO 21 Jun 2023): 3.1%
Anaemia [6]: 24.2%
Arthralgia [6]: 18.9%
Asthenia [6]: 31.7%
Back pain [6]: 12.3%
COVID-19 [6]: 16.3%
Constipation [6]: 22.0%
Decreased appetite [6]: 21.1%
Diarrhoea [6]: 16.3%
Dry mouth [6]: 57.3%
Fatigue [6]: 22.9%
Nausea [6]: 31.3%
Oedema peripheral [6]: 8.4%
Vomiting [6]: 11.5%
Weight decreased [6]: 6.6%
AE preferred term: Anaemia [7]: 55 (24.2) n (%)
AE preferred term: Arthralgia [7]: 43 (18.9) n (%)
AE preferred term: Asthenia [7]: 72 (31.7) n (%)
AE preferred term: Back pain [7]: 28 (12.3) n (%)
AE preferred term: COVID-19 [7]: 37 (16.3) n (%)
AE preferred term: Constipation [7]: 50 (22.0) n (%)
AE preferred term: Decreased appetite [7]: 48 (21.1) n (%)
AE preferred term: Diarrhoea [7]: 37 (16.3) n (%)
AE preferred term: Dry mouth [7]: 130 (57.3) n (%)
AE preferred term: Fatigue [7]: 52 (22.9) n (%)
AE preferred term: Nausea [7]: 71 (31.3) n (%)
AE preferred term: Oedema peripheral [7]: 19 (8.4) n (%)
AE preferred term: Vomiting [7]: 26 (11.5) n (%)
AE preferred term: Weight decreased [7]: 15 (6.6) n (%)
Adverse events (participants with at least one event) [7]: 223 (98.2) n (%)
Adverse events leading to discontinuation [7]: 13 (5.7) n (%)
Adverse events leading to discontinuation, Treatment-related [7]: 7 (3.1) n (%)
Adverse events leading to dose adjustment [7]: 8 (3.5) n (%)
Adverse events leading to dose interruption [7]: 27 (11.9) n (%)
Adverse events requiring additional therapy [7]: 162 (71.4) n (%)
Adverse events, Treatment-related [7]: 196 (86.3) n (%)
Fatal serious adverse events [7]: 4 (1.8) n (%)
Fatal serious adverse events, Treatment-related [7]: 0 n (%)
Serious adverse events [7]: 46 (20.3) n (%)
Serious adverse events, Treatment-related [7]: 7 (3.1) n (%)
AE preferred term: Anaemia [8]: 14 (6.2) n (%)
AE preferred term: Arthralgia [8]: 0 n (%)
AE preferred term: Asthenia [8]: 1 (0.4) n (%)
AE preferred term: Back pain [8]: 2 (0.9) n (%)
AE preferred term: COVID-19 [8]: 1 (0.4) n (%)
AE preferred term: Constipation [8]: 1 (0.4) n (%)
AE preferred term: Decreased appetite [8]: 0 n (%)
AE preferred term: Diarrhoea [8]: 0 n (%)
AE preferred term: Dry mouth [8]: 3 (1.3) n (%)
AE preferred term: Fatigue [8]: 0 n (%)
AE preferred term: Nausea [8]: 0 n (%)
AE preferred term: Oedema peripheral [8]: 0 n (%)
AE preferred term: Vomiting [8]: 0 n (%)
AE preferred term: Weight decreased [8]: 2 (0.9) n (%)
Adverse events (participants with at least one event) [8]: 78 (34.4) n (%)
Adverse events leading to discontinuation [8]: 8 (3.5) n (%)
Adverse events leading to discontinuation, Treatment-related [8]: 4 (1.8) n (%)
Adverse events leading to dose adjustment [8]: 3 (1.3) n (%)
Adverse events leading to dose interruption [8]: 13 (5.7) n (%)
Adverse events requiring additional therapy [8]: 48 (21.1) n (%)
Adverse events, Treatment-related [8]: 25 (11.0) n (%)
Fatal serious adverse events [8]: 4 (1.8) n (%)
Fatal serious adverse events, Treatment-related [8]: 0 n (%)
Serious adverse events [8]: 41 (18.1) n (%)
Serious adverse events, Treatment-related [8]: 6 (2.6) n (%)
Serious adverse event Acute kidney injury, All Grades [9]: 2 (0.9) n (%)
Serious adverse event Acute kidney injury, Grade >=3 [9]: 2 (0.9) n (%)
Serious adverse event Anaemia, All Grades [9]: 4 (1.8) n (%)
Serious adverse event Anaemia, Grade >=3 [9]: 3 (1.3) n (%)
Serious adverse event COVID-19, All Grades [9]: 1 (0.4) n (%)
Serious adverse event COVID-19, Grade >=3 [9]: 1 (0.4) n (%)
Serious adverse event Femur fracture, All Grades [9]: 2 (0.9) n (%)
Serious adverse event Femur fracture, Grade >=3 [9]: 2 (0.9) n (%)
Serious adverse event Haematuria, All Grades [9]: 0 n (%)
Serious adverse event Haematuria, Grade >=3 [9]: 0 n (%)
Serious adverse event Pain, All Grades [9]: 1 (0.4) n (%)
Serious adverse event Pain, Grade >=3 [9]: 1 (0.4) n (%)
Serious adverse event Pneumonia, All Grades [9]: 1 (0.4) n (%)
Serious adverse event Pneumonia, Grade >=3 [9]: 1 (0.4) n (%)
Serious adverse event Sepsis, All Grades [9]: 3 (1.3) n (%)
Serious adverse event Sepsis, Grade >=3 [9]: 3 (1.3) n (%)
Serious adverse event Spinal cord compression, All Grades [9]: 2 (0.9) n (%)
Serious adverse event Spinal cord compression, Grade >=3 [9]: 2 (0.9) n (%)
Serious adverse event Urinary retention, All Grades [9]: 1 (0.4) n (%)
Serious adverse event Urinary retention, Grade >=3 [9]: 1 (0.4) n (%)
Serious adverse event Urinary tract infection, All Grades [9]: 4 (1.8) n (%)
Serious adverse event Urinary tract infection, Grade >=3 [9]: 3 (1.3) n (%)
Serious adverse events: number of participants with at least one event, All Grades [10]: 46 (20.3) n (%)
Serious adverse events: number of participants with at least one event, Grade >=3 [10]: 41 (18.1) n (%)
